Laboratory results as given in PubChem BioAssay AID608 (Sanford-Burnham Center for Chemical Genomics, 2007).
Active and inactive are the calls of the source. No rule for the calls is given here.

Biological target: Peptidyl-prolyl cis-trans isomerase FKBP1A (Homo sapiens) (UniProt P62942)
Assay: small-molecule binding to FKBP12 – biophysical, NMR detection (AID 608)
Conditions: purified FKBP12

Sequence of Peptidyl-prolyl cis-trans isomerase FKBP1A (Homo sapiens) (P62942 whole entry, looked up): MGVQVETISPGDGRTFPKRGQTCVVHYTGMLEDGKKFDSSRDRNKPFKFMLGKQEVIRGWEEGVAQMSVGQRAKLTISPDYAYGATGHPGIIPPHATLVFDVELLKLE

## Cc1onc(-c2ccccc2)c1C(=O)Nc1ccncc1
  Kd: > 4 mM (inactive)

## COc1c2c(cc3c1OCO3)CCN(C)C2
  Kd: > 4 mM (inactive)

## Cc1ccc(C(O)c2nccn2C)o1 (stereo not drawn)
  Kd: > 4 mM (inactive)

## Cc1oc(-c2ccccc2)nc1CCO
  Kd: > 4 mM (inactive)

## NCc1ccc2c(c1)OCCO2
  Kd: > 4 mM (inactive)

## NC(c1ccccc1)c1ccccn1 (stereo not drawn)
  Kd: > 4 mM (inactive)

## Nc1ccccc1-n1cccn1
  Kd: > 4 mM (inactive)

## COc1cc(CNCc2cccs2)ccc1OCC(=O)N1CCOCC1
  Kd: > 4 mM (inactive)

## Nc1cc(=O)[nH]c(SCC(=O)NC2CCCCC2)n1
  Kd: > 4 mM (inactive)

## CC(=O)NC1=C(N(C)C)C(=O)c2ccccc2C1=O
  Kd: > 4 mM (inactive)

## COc1cc2occc2c2oc(=O)ccc12
  Kd: > 4 mM (inactive)

## Nc1cc(=O)[nH]c(=S)n1-c1cccc(C(F)(F)F)c1
  Kd: > 4 mM (inactive)

## CC(=O)N1CCn2c3c(c(=O)c4cc(C)ccc42)CCC31 (stereo not drawn)
  Kd: > 4 mM (inactive)

## O=C(Cn1cnc2ccccc2c1=O)N1CCOCC1
  Kd: > 4 mM (inactive)

## Cc1ccc(S(=O)(=O)CC(N)=O)cc1
  Kd: > 4 mM (inactive)

## CC(=O)Oc1ccc(-c2cc(=O)c3c(OC(C)=O)cc(OC(C)=O)cc3o2)cc1
  Kd: > 4 mM (inactive)

## COCc1c(CN)cnc(C)c1N
  Kd: > 4 mM (inactive)

## Cc1noc(C)c1C(=O)Nc1cccnc1
  Kd: > 4 mM (inactive)

## Nc1nsc(-c2ccccc2)n1
  Kd: > 4 mM (inactive)

## CCOC(=O)c1cc(C)n(-n2cnnc2)c1C
  Kd: > 4 mM (inactive)

## COc1cccc(N2CCNCC2)c1
  Kd: > 4 mM (inactive)

## CC(=O)Nc1nnc(-c2ccccc2S(C)(=O)=O)o1
  Kd: > 4 mM (inactive)

## NC(=O)CCn1c(=O)oc2ccccc21
  Kd: > 4 mM (inactive)

## NCc1n[nH]c(=O)c2ccccc12
  Kd: > 4 mM (inactive)

## CC1CCCN(C/C(O)=C(\C#N)c2nc3ccccc3[nH]2)C1 (stereo not drawn)
  Kd: > 4 mM (inactive)

## CCn1cnc2scc(-c3ccccc3)c2c1=O
  Kd: > 4 mM (inactive)

## O=c1/c(=C/c2ccccc2F)sc2ncnn12
  Kd: > 4 mM (inactive)

## Cc1nc(NC(=O)c2cccnc2)ccc1Br
  Kd: > 4 mM (inactive)

## O=C(O)CCc1nc2ccccc2[nH]c1=O
  Kd: > 4 mM (inactive)

## CC(C)CCn1cnc2c1c(=O)n(C)c(=O)n2C
  Kd: > 4 mM (inactive)

## NC(=O)CC[C@H](N)C(=O)O
  Kd: > 4 mM (inactive)

## CC(=O)OCC(OC(C)=O)C(OC(C)=O)C(OC(C)=O)C(OC(C)=O)C(COC(C)=O)OC(C)=O (stereo not drawn)
  Kd: > 4 mM (inactive)

## CC1(C)CC(NC(=O)/C=C/C(=O)O)CC(C)(C)N1
  Kd: > 4 mM (inactive)

## Cc1nnc2sc(-c3ccco3)nn12
  Kd: > 4 mM (inactive)

## COc1c2occc2c(OC)c2c(=O)cc(C)oc12
  Kd: > 4 mM (inactive)

## Cc1cc(C(=O)Nc2ccon2)cs1
  Kd: > 4 mM (inactive)

## Cc1cc(C)n2nc(Cc3ccccc3)nc2n1
  Kd: > 4 mM (inactive)

## Cc1ccc(NS(=O)(=O)N2CCOCC2)c(C)c1
  Kd: > 4 mM (inactive)

## O=C(CS(=O)(=O)c1ccccc1)N1CCCCCC1
  Kd: > 4 mM (inactive)

## COC(=O)c1c(OC)cc2c(c1C)Oc1c(Cl)c(O)c(Cl)c(C)c1C(=O)O2
  Kd: > 4 mM (inactive)

## CCOC(=O)C1CCN(c2ncnc3nc[nH]c23)CC1
  Kd: > 4 mM (inactive)

## c1cc(CNc2ccc3c(c2)OCCO3)ccn1
  Kd: > 4 mM (inactive)

## Cn1nnc2cc(CO)ccc21
  Kd: > 4 mM (inactive)

## CC1CN(C(=O)c2sc3cccc(F)c3c2Cl)CC(C)O1 (stereo not drawn)
  Kd: > 13.6 mM (inactive)

## CCOC(=O)c1c(-c2ccncc2)csc1N
  Kd: > 4 mM (inactive)

## C=C1CSc2nc(=O)c3c(C)c(C)sc3n21
  Kd: > 4 mM (inactive)

## Cc1nn2c(-c3ccco3)nnc2c2ccccc12
  Kd: > 4 mM (inactive)

## Nc1ncnc2c1ncn2[C@@H]1O[C@H](CO)[C@@H](O)[C@H]1O
  Kd: > 4 mM (inactive)

## Cc1ccc(C(=O)CS(C)(=O)=O)cc1
  Kd: > 4 mM (inactive)

## Cc1cccc(-n2c(N)cc(=O)[nH]c2=S)c1
  Kd: > 4 mM (inactive)

## O=C(NCc1ccccc1)c1ccc[n+]([O-])c1
  Kd: > 4 mM (inactive)

## Fc1ccc(CN2CCCNCC2)cc1
  Kd: > 4 mM (inactive)

## COC1=CC(=O)C[C@@H](C)[C@]12Oc1c(Cl)c(OC)cc(OC)c1C2=O
  Kd: > 4 mM (inactive)

## CCc1cc(=O)[nH]c(SCC(=O)NCCOC)n1
  Kd: > 4 mM (inactive)

## COc1cc(C)c(Cl)cc1S(=O)(=O)N(C)C
  Kd: > 4 mM (inactive)

## N#Cc1nc(-c2cccs2)oc1N1CCOCC1
  Kd: > 4 mM (inactive)

## O=C(c1cnsn1)N1CCN(c2ccccc2)CC1
  Kd: > 4 mM (inactive)

## CCC(=O)Nc1cccc(NC(C)=O)c1
  Kd: > 4 mM (inactive)

## C=C[C@H]1CN2CC[C@H]1C[C@@H]2[C@@H](O)c1ccnc2ccc(OC)cc12
  Kd: > 4 mM (inactive)

## Cc1cc(NC(=O)CSc2nncn2C)no1
  Kd: > 4 mM (inactive)

## O=C(Nn1cnnc1)c1cc2c(s1)CCCCC2
  Kd: > 4 mM (inactive)

## OC1COCc2nc3ccccc3n2C1 (stereo not drawn)
  Kd: > 4 mM (inactive)

## Cn1c(=O)cc(N2CCCCC2)[nH]c1=O
  Kd: > 4 mM (inactive)

## O=C(Nc1nc2c(s1)CCCC2)c1cccnc1
  Kd: > 4 mM (inactive)

## O=C1CC(NCc2ccco2)C(=O)NN1 (stereo not drawn)
  Kd: > 4 mM (inactive)

## Cc1ccccc1NS(=O)(=O)c1ccc(F)cc1
  Kd: > 4 mM (inactive)

## CN(C)S(=O)(=O)c1ccc(C(=O)NN)cc1
  Kd: > 4 mM (inactive)

## CC1CC[C@@]2(OC1)O[C@H]1CC3C4CC[C@@H]5C[C@@H](O)CC[C@]5(C)C4CC[C@]3(C)[C@H]1[C@@H]2C (stereo partly drawn)
  Kd: > 4 mM (inactive)

## CC(=O)NC(=S)Nc1ccc(C(C)=O)cc1
  Kd: > 4 mM (inactive)

## CCn1cnc2cc([N+](=O)[O-])ccc2c1=O
  Kd: > 4 mM (inactive)

## O=C1CC(N2CCC(O)CC2)C(=O)N1c1ccc(F)cc1 (stereo not drawn)
  Kd: > 4 mM (inactive)

## Nc1ccc(CN2CCOCC2)cc1
  Kd: > 4 mM (inactive)

## O=C(Cc1ccccc1)Nc1c[nH]c(=O)[nH]c1=O
  Kd: > 4 mM (inactive)

## CN1CCC(O)N1C(=O)c1ccccc1O (stereo not drawn)
  Kd: > 4 mM (inactive)

## N#Cc1cn(CC(=O)N2CCCC2)c2ccccc12
  Kd: > 4 mM (inactive)

## Cc1nc(NCc2ccco2)nc2c1C(=O)CC(C)C2 (stereo not drawn)
  Kd: > 4 mM (inactive)

## CC(=O)N1CCN(c2ccc(N)cc2)CC1
  Kd: > 4 mM (inactive)

## COc1cc2ccc(=O)oc2c2ccoc12
  Kd: > 4 mM (inactive)

## CCSc1nc2ccccc2n1CC(N)=O
  Kd: > 4 mM (inactive)

## O=c1[nH]c(O)c(C=NCc2cccs2)c(=O)[nH]1
  Kd: > 4 mM (inactive)

## O=C(CCc1n[nH]c(=O)[nH]c1=O)NCc1ccccc1
  Kd: > 4 mM (inactive)

## Nc1cc(=O)[nH]c(SCC(=O)Nc2nccs2)n1
  Kd: > 4 mM (inactive)

## O=C(N1CCOCC1)N1CCN(c2ccccn2)CC1
  Kd: > 4 mM (inactive)

## Cc1ccc(-n2[nH]c(C)cc2=O)cc1
  Kd: > 4 mM (inactive)

## CC(=O)CC1CCCCN1 (stereo not drawn)
  Kd: > 4 mM (inactive)

## O=C(Nc1cnc2ccccn2c1=O)c1ccc(F)cc1
  Kd: > 4 mM (inactive)

## O=C(Nc1ccccc1)c1cccc(N2C(=O)CCC2=O)c1
  Kd: > 4 mM (inactive)

## OC1CCN(Cc2ccc[nH]2)CC1
  Kd: > 4 mM (inactive)

## O=C(COc1ccccc1)N1CCc2ccccc2C1
  Kd: > 4 mM (inactive)

## CC(=O)Nc1ccc(N2C(=O)C=CC2=O)cc1C
  Kd: > 4 mM (inactive)

## CNC(=O)C(=O)Nc1cccc(Cl)c1
  Kd: > 4 mM (inactive)

## O=c1[nH]c(NCCO)nnc1Cc1ccccc1
  Kd: > 4 mM (inactive)

## COc1ccc2c(c1)c1n[nH]c(=S)nc1n2C
  Kd: > 4 mM (inactive)

## O=C1C2CC=CCC2C(=O)N1c1ccccc1O (stereo not drawn)
  Kd: > 4 mM (inactive)

## O=C(NC1CCS(=O)(=O)C1)c1ccccc1 (stereo not drawn)
  Kd: > 4 mM (inactive)

## NC(=O)c1ccccc1NC(=O)C1CC1
  Kd: > 4 mM (inactive)

## Nc1ccc2c(c1)OCO2
  Kd: > 4 mM (inactive)

## O=C(O)c1cccc(CSc2ncccn2)c1
  Kd: > 4 mM (inactive)

## COc1cc(C(C)=O)cc(OC)c1O
  Kd: > 4 mM (inactive)

## OC12C=CC(CC1)CC2
  Kd: > 4 mM (inactive)

## O=C1NC(=O)C(c2ccccc2)C(=O)N1
  Kd: > 4 mM (inactive)

## O=C(NN1C(=O)CSC1=S)c1ccccc1
  Kd: > 4 mM (inactive)

## CC1(C)Cc2c(C#N)c(N)n(-c3ccccc3)c(=O)c2CO1
  Kd: > 4 mM (inactive)

## O=S(=O)(Cc1ccccc1Cl)Nc1ccccn1
  Kd: > 4 mM (inactive)

## Nc1cccc(-n2cnnn2)c1
  Kd: > 4 mM (inactive)

## CC1(C)C=Cc2cc3ccc(=O)oc3cc2O1
  Kd: > 4 mM (inactive)

## O=S(=O)(Nc1cccc2cn[nH]c12)c1ccc(F)cc1
  Kd: > 4 mM (inactive)

## O=C(Nc1ccccc1)N1CCOCC1
  Kd: > 4 mM (inactive)

## NC(=O)c1cc(Cl)c(C(N)=O)cc1Cl
  Kd: > 4 mM (inactive)

## Cc1nn2c(nc1=O)SCC2(O)c1ccccc1 (stereo not drawn)
  Kd: > 4 mM (inactive)

## CC(=O)Nc1cc(N2C(=O)C=CC2=O)ccc1Cl
  Kd: > 4 mM (inactive)

## CCNCC(O)c1ccc([N+](=O)[O-])cc1 (stereo not drawn)
  Kd: > 4 mM (inactive)

## CCOCC(=O)NCc1n[nH]c(=O)c2ccccc12
  Kd: > 4 mM (inactive)

## Nc1nnc(Cc2ccc(Cl)cc2)s1
  Kd: > 4 mM (inactive)

## c1ccc(CCNc2ncnc3nc[nH]c23)cc1
  Kd: > 4 mM (inactive)

## O=S(=O)(Nc1ccc(Br)cc1)N1CCCCC1
  Kd: 0.669 mM

## CCOC(=O)c1c(C)nc2sccn12
  Kd: > 4 mM (inactive)

## CN(C)C(=O)Oc1cccc(-c2nnco2)c1
  Kd: > 4 mM (inactive)

## CC(=O)OC1CCC23C(=O)OC45CCC(C6=CC(=O)OC6)C4(C)CCC2C5CCC3(O)C1 (stereo not drawn)
  Kd: > 4 mM (inactive)

## COc1ccc(CN2CCC(O)CC2)c(O)c1
  Kd: > 4 mM (inactive)

## CC(=O)CC1(O)C(=O)Nc2ccccc21 (stereo not drawn)
  Kd: > 4 mM (inactive)

## Cc1nc(-c2cc(CO)no2)cs1
  Kd: > 4 mM (inactive)

## COc1ccc(-c2c(O)c3c(OC)c4c(cc3oc2=O)OC(C)(C)CC4)cc1
  Kd: > 4 mM (inactive)
